Values joined by “and” are separate entries in the source; they are usually repeats but may differ in a detail not shown here. Identical values can stand only once.

As usually defined, the Kd is the constant that tells how readily two partners part at equilibrium. Higher therefore signals lower affinity. What is called IC50 is the concentration at which inhibition is half-maximal.

The target of one experiment is T1, NPM1 C-end C+ (Homo sapiens, UniProt P06748).
T1 construct: the C-end domain (residues 225- 294); 6xHis (N); made in house; host or cells: E. coli BL21(DE3)
T1 sequence (P06748 with tags, fused parts or gaps limits assumed): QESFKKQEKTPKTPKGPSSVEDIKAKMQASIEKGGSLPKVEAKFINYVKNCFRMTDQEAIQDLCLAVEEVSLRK
Briefly: Isothermal titration calorimetry, NPM1 C-end C+. The experiment is classed as binding. The note with it: ITC. From the text:
(§1) To confirm a direct interaction of UCM-13369 with NPM1 and to address which domain of the protein would be responsible for binding the compound, pure protein samples of the pentameric N-end domain of NPM1, along with the C-terminal DNA-binding domains of WT and mutant NPM1 C+, were used in calorimetry assays. […] This is indicative of a lower diversity in the chemical environment of amide protons consistent with the previously reported protein unfolding.[29] […] On the other hand, the pentameric construct of the NPM1 N-end, which lacks the AML-related region, yielded a much lower binding affinity (KD ca. 100 μM range, Figure 3D).
(§2) ITC experiments were performed in a Nano ITC Low Volume (TA Instruments) at 25 °C. […]
(§3) The purity of the protein samples was checked by SDS–PAGE analysis (Figure S3) and protein quantification was performed using the Bradford protein assay.5 NPM molar concentration was expressed as the pentameric form for NPM1 WT N-end and as a monomer for NPM1 C-end WT and mutant. […]
(§4) After extraction with acetonitrile and acidification, samples were desalted and concentrated with C18 tips. Mass spectra were recorded in a Hybrid Quadrupole-Orbitrap™ Mass Spectrometer (Thermo Scientific, Waltham, Massachusetts, USA)
On the technique in general: In ITC the heat of successive injections is recorded.

For the next experiment, the system named is NPM1 C+. Description: Confocal microscopy of NPM1 subcellular localization in OCI-AML3 cells. The class given is cell-based. The note with it: OCI-AML3, 10 μM. The procedure: To further elucidate the mechanism of action of UCM-13369, we studied the influence of the compound on the subcellular localization of the protein by confocal microscopy, using an Alexa Fluor-647-conjugated NPM1 primary antibody (Figure 4D).
Cells were plated onto glass coverslips or Greiner Bio-One μClear black 96-well plate (7.5 × 10^4 cells per well) and treated with compound UCM-13369 for 48 h. Then, cells were fixed with 4% paraformaldehyde for 15 min, permeabilized with 0.1% Triton X-100 for 30 min, and blocked in 5% bovine serum albumin for 1 h at rt. Incubation with primary antibodies against NPM1 (7H10B9, NOVUS Biologicals) was carried out overnight at 4 °C. Alexa Fluor-488-conjugated antimouse or antirabbit antibodies (Molecular Probes) were used for detection of the reported proteins by confocal microscopy. Nuclei were counterstained with 4′,6-diamidino-2-phenylindole (DAPI) bath. A total of 35 fields per well were acquired with ×40 magnification lens for those samples run in the Opera HCS system (PerkinElmer). Images were segmented using the DAPI staining and the coefficient of variation of NPM1 intensity per nucleus/cytoplasm was calculated using Definiens Developer XD software.

Experiment [1] concerns the target T2, NPM1 N-end (pentameric, WT) (Homo sapiens, UniProt P06748).
T2 construct: N-end pentameric domain (residues 1- 130); 6xHis (N); made in house; host or cells: E. coli BL21(DE3)
Description: Isothermal titration calorimetry, NPM1 N-end. The class given is binding. The note with it: ITC, 25 °C.
Source text: as §1, §2, §3, §4

Experiment [2] deals with primary HSCs from healthy donors. Briefly: CD34+ liquid HSC short-term culture, healthy donors. The experiment is classed as cell-based. The note with it: Homo sapiens. The procedure: Considering the inhibitory capacity of UCM-13369 on AML cell lines (shown in Figure 3A), the therapeutic potential was assessed in primary CD34+ cells from AML patients. Two ex vivo models were used from AML patients and healthy donors: CD34+ liquid HSC (hematopoietic stem cell) culture as a short-term model and CFU-E (colony-forming unit–erythroid) as a midterm model.
The test compound was diluted in PBS. […]
Primary cells. 1x10^6/mL total mononuclear bone marrow cells (as source of CD34+ HSCs) of healthy donors and AML patients were used. They were cultured using Stem SpanTM supplement with pencillin/streptomycin (500 U/ml), TPO (10 µg/mL), SCF (10 µg/mL), FLT3 (10 µg/mL), IL-6 (10 µg/mL) and IL-3 (10 µg/mL). After 24 h fresh medium was added. After 72 h in maintenance cells were ready to start the assays. All cells wer e maintained at 37 °C in a humidified incubator in an atmosphere of 5% CO2. […]

T2 sequence (P06748 1-130): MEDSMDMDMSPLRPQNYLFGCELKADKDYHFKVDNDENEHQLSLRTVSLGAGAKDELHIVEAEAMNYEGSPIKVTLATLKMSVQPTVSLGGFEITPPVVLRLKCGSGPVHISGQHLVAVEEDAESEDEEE

Consider `COc1ccc(C2Cc3[nH]c4ccccc4c3C(CCNCC3CC3)C2N)cc1` (centres unmarked) [4b, 4-{2-[(Cyclopropylmethyl)amino]ethyl}-2-(4-methoxyphenyl)-2,3,4,9-tetrahydro-1H-carbazol-3-amine], for which the Kd at NPM1 C-end C+ (25 °C, NPM1 C-end C+) is 15 µM; in experiment [1], 100 µM and ~100 µM. For the same compound, on NPM1 C-end C+ (C+ variant vs WT domain), the “Higher affinity of NPM1 C-end C+ than WT domain” value is recorded as 2 fold. Moreover, the “Subcellular localization of NPM1 (in words)” value in the experiment with NPM1 C+ is “reduction of the cytoplasmic form of the protein”. In experiment [2], this compound registered an IC50 of 6.4 µM.

(Values after publication PMC11134387, “Cancer-Stem-Cell Phenotype-Guided Discovery of a Microbiota-Inspired Synthetic Compound Targeting NPM1 for Leukemia” (JACS Au, 2024).)
